From PubChem BioAssay AID1963979 (Molecular Pharmacology Branch, DTP, NCI, 2024)

System: 361931-004-R-J1-PDC multicell spheroid viability
Assay: Anticancer human tumor 361931-004-R-J1-PDC patient-derived colon adenocarcinoma cell line growth inhibition [PI3K]
Conditions: for viability, T/C: stronger effect = lower value
Method in brief: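 Three cell types, namely tumor cells, endothelial cells and mesenchymal stem cells, formed each spheroid. Combinations with four PI3K inhibitors were screened at clinically achievable concentrations decreasing by half-log, and spheroid viability was recorded.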

[1] = curve of first compound, second compound 0.00316 µM
[2] = curve of first compound, second compound 0.01 µM
[3] = curve of first compound, second compound 0.0316 µM
[4] = curve of first compound, second compound 0.1 µM
[5] = curve of first compound, second compound 0.316 µM
[6] = curve of first compound, second compound 1 µM
[7] = second compound 0.00316 µM, first compound 0.0316 µM
[8] = second compound 0.00316 µM, first compound 0.1 µM
[9] = second compound 0.00316 µM, first compound 0.316 µM
[10] = second compound 0.00316 µM, first compound 1 µM
[11] = second compound 0.00316 µM, first compound 3.16 µM
[12] = second compound 0.00316 µM, first compound 10 µM
[13] = second compound 0.01 µM, first compound 0.0316 µM
[14] = second compound 0.01 µM, first compound 0.1 µM
[15] = second compound 0.01 µM, first compound 0.316 µM
[16] = second compound 0.01 µM, first compound 1 µM
[17] = second compound 0.01 µM, first compound 3.16 µM
[18] = second compound 0.01 µM, first compound 10 µM
[19] = second compound 0.0316 µM, first compound 0.0316 µM
[20] = second compound 0.0316 µM, first compound 0.1 µM
[21] = second compound 0.0316 µM, first compound 0.316 µM
[22] = second compound 0.0316 µM, first compound 1 µM
[23] = second compound 0.0316 µM, first compound 3.16 µM
[24] = second compound 0.0316 µM, first compound 10 µM
[25] = second compound 0.1 µM, first compound 0.0316 µM
[26] = second compound 0.1 µM, first compound 0.1 µM
[27] = second compound 0.1 µM, first compound 0.316 µM
[28] = second compound 0.1 µM, first compound 1 µM
[29] = second compound 0.1 µM, first compound 3.16 µM
[30] = second compound 0.1 µM, first compound 10 µM
[31] = second compound 0.316 µM, first compound 0.0316 µM
[32] = second compound 0.316 µM, first compound 0.1 µM
[33] = second compound 0.316 µM, first compound 0.316 µM
[34] = second compound 0.316 µM, first compound 1 µM
[35] = second compound 0.316 µM, first compound 3.16 µM
[36] = second compound 0.316 µM, first compound 10 µM
[37] = second compound 1 µM, first compound 0.0316 µM
[38] = second compound 1 µM, first compound 0.1 µM
[39] = second compound 1 µM, first compound 0.316 µM
[40] = second compound 1 µM, first compound 1 µM
[41] = second compound 1 µM, first compound 3.16 µM
[42] = second compound 1 µM, first compound 10 µM
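Note: spheroids exposed to agents for seven days before readout.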

With CC(C)NCC(C(=O)N1CCN(c2ncnc3c2C(C)CC3O)CC1)c1ccc(Cl)cc1 (stereo not drawn) + CC(Nc1ccc2c(c1)OCCn1cc(N3C(=O)OCC3C(F)F)nc1-2)C(N)=O the IC50 [1] was 1270 nM, the IC50 [2] was 1240 nM and the IC50 [3] was 906 nM. For the same compound, the IC50 [4] was 1360 nM, the IC50 [5] was 1040 nM and the IC50 [6] was 1090 nM. The viability, T/C [7] was 93.3%, the viability, T/C [8] was 99% and the viability, T/C [9] was 78.1%. It also gave a viability, T/C [10] of 55.2%, a viability, T/C [11] of 31.6% and a viability, T/C [12] of 18.9%. It also gave a viability, T/C [13] of 105%, a viability, T/C [14] of 92.9% and a viability, T/C [15] of 75.9%. For the same compound, the viability, T/C [16] was 55.3%, the viability, T/C [17] was 31.8% and the viability, T/C [18] was 19.9%. The viability, T/C [19] was 97.9%, the viability, T/C [20] was 96.6% and the viability, T/C [21] was 76%. The viability, T/C [22] was 46.4%, the viability, T/C [23] was 30.2% and the viability, T/C [24] was 18.8%. It also gave a viability, T/C [25] of 101%, a viability, T/C [26] of 95% and a viability, T/C [27] of 71.2%. For the same compound, the viability, T/C [28] was 50.9%, the viability, T/C [29] was 41.8% and the viability, T/C [30] was 18.3%. For the same compound, the viability, T/C [31] was 90.5%, the viability, T/C [32] was 77.4% and the viability, T/C [33] was 74%. For the same compound, the viability, T/C [34] was 51.2%, the viability, T/C [35] was 28.6% and the viability, T/C [36] was 20.7%. It also gave a viability, T/C [37] of 72.3%, a viability, T/C [38] of 71.1% and a viability, T/C [39] of 68.9%. For the same compound, the viability, T/C [40] was 51.7%, the viability, T/C [41] was 25.3% and the viability, T/C [42] was 15.3%.
CC(C)n1nc(-c2ccc3oc(N)nc3c2)c2c(N)ncnc21 + CC(Nc1ncnc2nc[nH]c12)c1cc2cccc(Cl)c2c(=O)n1-c1ccccc1 gave an IC50 [3] of over 100 nM, an IC50 [4] of over 100 nM and an IC50 [5] of over 100 nM. The IC50 [6] was over 100 nM, the IC50 (curve of first compound, second compound 3.16 µM) was over 100 nM and the IC50 (curve of first compound, second compound 10 µM) was over 100 nM. The viability, T/C (second compound 0.0316 µM, first compound 0.000316 µM) was 103%, the viability, T/C (second compound 0.0316 µM, first compound 0.001 µM) was 107% and the viability, T/C (second compound 0.0316 µM, first compound 0.00316 µM) was 105%. For the same compound, the viability, T/C (second compound 0.0316 µM, first compound 0.01 µM) was 104%, the viability, T/C [19] was 108% and the viability, T/C [20] was 77.9%. For the same compound, the viability, T/C (second compound 0.1 µM, first compound 0.000316 µM) was 111%, the viability, T/C (second compound 0.1 µM, first compound 0.001 µM) was 106% and the viability, T/C (second compound 0.1 µM, first compound 0.00316 µM) was 104%. The viability, T/C (second compound 0.1 µM, first compound 0.01 µM) was 99.1%, the viability, T/C [25] was 107% and the viability, T/C [26] was 81.5%. It also gave a viability, T/C (second compound 0.316 µM, first compound 0.000316 µM) of 98.2%, a viability, T/C (second compound 0.316 µM, first compound 0.001 µM) of 103% and a viability, T/C (second compound 0.316 µM, first compound 0.00316 µM) of 108%. The viability, T/C (second compound 0.316 µM, first compound 0.01 µM) was 109%, the viability, T/C [31] was 115% and the viability, T/C [32] was 74.8%. For the same compound, the viability, T/C (second compound 1 µM, first compound 0.000316 µM) was 97.4%, the viability, T/C (second compound 1 µM, first compound 0.001 µM) was 105% and the viability, T/C (second compound 1 µM, first compound 0.00316 µM) was 104%. It also gave a viability, T/C (second compound 1 µM, first compound 0.01 µM) of 107%, a viability, T/C [37] of 105% and a viability, T/C [38] of 72.3%. For the same compound, the viability, T/C (second compound 3.16 µM, first compound 0.000316 µM) was 109%, the viability, T/C (second compound 3.16 µM, first compound 0.001 µM) was 106% and the viability, T/C (second compound 3.16 µM, first compound 0.00316 µM) was 100%. The viability, T/C (second compound 3.16 µM, first compound 0.01 µM) was 96.2%, the viability, T/C (second compound 3.16 µM, first compound 0.0316 µM) was 100% and the viability, T/C (second compound 3.16 µM, first compound 0.1 µM) was 72.4%. For the same compound, the viability, T/C (second compound 10 µM, first compound 0.000316 µM) was 107%, the viability, T/C (second compound 10 µM, first compound 0.001 µM) was 107% and the viability, T/C (second compound 10 µM, first compound 0.00316 µM) was 107%. For the same compound, the viability, T/C (second compound 10 µM, first compound 0.01 µM) was 104%, the viability, T/C (second compound 10 µM, first compound 0.0316 µM) was 103% and the viability, T/C (second compound 10 µM, first compound 0.1 µM) was 63.5%.
For CC(Nc1ccc2c(c1)OCCn1cc(N3C(=O)OCC3C(F)F)nc1-2)C(N)=O (stereo not drawn), the viability, T/C (compound 0.00316 µM) was 98.9% [middle of 8 runs], the viability, T/C (compound 0.01 µM) was 97.8% [middle of 8 runs] and the viability, T/C (compound 0.0316 µM) was 98.1% [middle of 8 runs]. The viability, T/C (compound 0.1 µM) was 94.3% [middle of 8 runs], the viability, T/C (compound 0.316 µM) was 92.9% [middle of 8 runs] and the viability, T/C (compound 1 µM) was 88.1% [middle of 8 runs]. For the same compound, the IC50 (compound alone, run of 05/08/2023) was over 1000 nM.
C[C@@H](NC(=O)c1ncnc(N)c1Cl)c1ncc(C(=O)Nc2cc(C(F)(F)F)c(Cl)cn2)s1 + CC(Nc1ccc2c(c1)OCCn1cc(N3C(=O)OCC3C(F)F)nc1-2)C(N)=O showed an IC50 [1] of over 10000 nM, an IC50 [2] of over 10000 nM and an IC50 [3] of over 10000 nM. The IC50 [4] was over 10000 nM, the IC50 [5] was over 10000 nM and the IC50 [6] was 5850 nM. For the same compound, the viability, T/C [7] was 110%, the viability, T/C [8] was 102% and the viability, T/C [9] was 105%. For the same compound, the viability, T/C [10] was 91.2%, the viability, T/C [11] was 96.8% and the viability, T/C [12] was 84.6%. The viability, T/C [13] was 110%, the viability, T/C [14] was 109% and the viability, T/C [15] was 98%. The viability, T/C [16] was 89.6%, the viability, T/C [17] was 95% and the viability, T/C [18] was 75.4%. The viability, T/C [19] was 101%, the viability, T/C [20] was 105% and the viability, T/C [21] was 92.2%. It also gave a viability, T/C [22] of 99%, a viability, T/C [23] of 82.4% and a viability, T/C [24] of 73.1%. It also gave a viability, T/C [25] of 97.6%, a viability, T/C [26] of 97.1% and a viability, T/C [27] of 92.1%. It also gave a viability, T/C [28] of 88.7%, a viability, T/C [29] of 89.1% and a viability, T/C [30] of 59.9%. For the same compound, the viability, T/C [31] was 97.9%, the viability, T/C [32] was 86.8% and the viability, T/C [33] was 75.9%. It also gave a viability, T/C [34] of 78.2%, a viability, T/C [35] of 70.5% and a viability, T/C [36] of 47.2%. For the same compound, the viability, T/C [37] was 77.9%, the viability, T/C [38] was 80.2% and the viability, T/C [39] was 73.5%. The viability, T/C [40] was 66%, the viability, T/C [41] was 61.4% and the viability, T/C [42] was 41.5%.
